Results: PubChem BioAssay (NCI)
Several values for one entry are separate records, joined by “and”; a condition that tells them apart may be missing. Identical values can stand only once.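 Each compound was tested at five concentrations against cells in 96-well plates for 48 hours. GI50 marks 50% less growth. TGI: concentration producing complete growth inhibition.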

Key:
Experiment in all cases: inhibition of tumour cell growth, NCI panel, 48 h
A549 NSCLC = system: A549 NSCLC
DU-145 prostate = system: DU-145 prostate
MALME-3M melanoma = system: MALME-3M melanoma
MDA-MB-231 breast = system: MDA-MB-231 breast
NCI-H460 lung = system: NCI-H460 lung
OVCAR-5 ovarian = system: OVCAR-5 ovarian
OVCAR-8 ovarian = system: OVCAR-8 ovarian
RPMI-8226 leukemia = system: RPMI-8226 leukemia
SW-620 colon = system: SW-620 colon
UO-31 renal = system: UO-31 renal

Row | SMILES | GI50 (A549 NSCLC) [nM] | TGI (A549 NSCLC) [µM] | GI50 (DU-145 prostate) [nM] | TGI (DU-145 prostate) [µM] | GI50 (MALME-3M melanoma) [nM] | TGI (MALME-3M melanoma) | GI50 (MDA-MB-231 breast) [nM] | TGI (MDA-MB-231 breast) [µM] | GI50 (NCI-H460 lung) [nM] | TGI (NCI-H460 lung) [µM] | GI50 (OVCAR-5 ovarian) [nM] | TGI (OVCAR-5 ovarian) | GI50 (OVCAR-8 ovarian) | TGI (OVCAR-8 ovarian) [µM] | GI50 (RPMI-8226 leukemia) [nM] | TGI (RPMI-8226 leukemia) [µM] | GI50 (SW-620 colon) [nM] | TGI (SW-620 colon) [µM] | GI50 (UO-31 renal) [nM] | TGI (UO-31 renal) [µM]
1 | NC(N)=NC(N)=NCCCc1ccco1 | > 500000 | > 500 | 140000 | > 500 | 18700 | 66.2 µM | 68800 | 198 | 143000 | > 500 | 148000 | > 500 µM | 31800 nM | 190 | 23700 | 101 | 18200 | 125 | 65200 | 195
2 | Cc1ccc2c(c1)C(=O)c1c-2c(OCCCN(C)C)nc2ccccc12 | 1460 | 3.19 | 2810 | 13.9 | 1540 | 3.29 µM | 1640 | 5.45 | 976 | 3.2 | 1470 | 3.65 µM | 2930 nM | 17 | 2710 | 7.93 | 587 | 2.02 | 1130 | 8.26
3 | N#C/C(=N\Nc1ccccc1)C(=O)Nc1cc(-c2ccccc2)nn1-c1ccccc1 | 2950 | > 100 | 4080 | > 100 | 2840 | > 100 µM | 3340 | > 100 | 2720 | 22.1 | 3390 | > 100 µM | 3250 nM | > 100 | 1800 | 39.2 | 3150 | > 100 | 2580 | > 100
4 | C[C@]12CC[C@H]3[C@@H](CC4SC(N)=NC45C/C(=N/NC(N)=O)CC[C@]35C)[C@@H]1CCC2=O (stereo not given in full) | 2020 | 3.89 | 1750 | 3.41 | 1760 | 3.49 µM | 1700 | 3.43 | 1920 | 3.61 | 1710 | 3.19 µM | 1850 nM | 3.63 | 300 | 1.37 | 1690 | 3.39 | 1520 | 2.88
5 | O=C(CI)Nc1ccc(O)c2ccccc12 | 3560 | 13.7 | 1880 | 3.87 | 547 | 1.16 µM | 2590 | 6.69 | 2130 | 4.71 | 1850 | 3.55 µM | 1930 nM | 7.15 | 1650 | 4.61 | 282 | 0.886 | 647 | 2.01
6 | COc1ccc(/C(C#N)=C/c2cc(OC)c(OC)c(OC)c2)cc1 | 23600 | > 100 | 40100 | > 100 | 7680 | 56.7 µM | 14100 | > 100 | 29600 | > 100 | 35300 | > 100 µM | 30700 nM | > 100 | 16600 | 56.1 | 13600 | > 100 | 15300 | 68.8
7 | CC(C)C(=O)c1c(C(F)(F)F)n([O-])c2cc(F)c(F)cc2[n+]1=O | 1380 | 4.14 | 592 | 1.72 | 693 | 2.21 µM | 176 | 0.77 | 811 | 2.81 | 1240 | 2.58 µM | 262 nM | 0.85 | 66.6 | 12.3 | 130 | 0.277 | 568 | 1.75
8 | Cc1ccc(NC(=O)/C(Cc2cc(=O)oc3cc(O)ccc23)=N\NC(C)(C)C)cc1C | – | > 100 | – | > 100 | – | – | – | > 100 | – | > 100 | – | – | – | > 100 | – | > 100 | – | > 100 | – | > 100
9 | CCC1(OC(=O)CN)C(=O)OCc2c1cc1n(c2=O)Cc2cc3ccccc3nc2-1 (stereo not given) | 47.2 | 2.28 | 5.36 | 0.551 | 196 | 0.802 µM and 3.75 µM | 652 | 6.04 | 3.29 | – | 72.8 | 0.6 µM and 0.533 µM | 40 nM and 22.7 nM | – | 31 | 0.209 | 44.8 | > 100 | – | 0.174
10 | COc1cc(OC)c(OC)cc1/C=C/c1cnnc2ccccc12 | – | > 10 | – | > 10 | – | > 10 µM | – | > 10 | – | > 10 | – | > 10 µM | – | > 10 | – | > 10 | – | > 10 | – | > 10
11 | O=CN1N=C(c2cccc(Nc3ccnc4cc(Cl)ccc34)c2)CC1c1ccccc1 (stereo not given) | 501 | > 26.2 | 440 | 16.8 | 373 | > 100 µM | 858 | > 21.3 | 393 | 8.4 | 1500 | > 100 µM | 553 nM | 7.5 | 471 | 4.51 | 311 | 14.7 | 408 | > 100
12 | Clc1ccc2nc(CI)c(CI)nc2c1 | 17800 | 38.7 | 10100 | 23.5 | 1750 | 3.83 µM | 2670 | 7.58 | 10100 | 27.1 | 6980 | 19.5 µM | 2870 nM | > 23.5 | 2620 | 8.25 | 2540 | 6.62 | 1720 | 3.5
13 | C[C@H]1COCCN1c1cc(C2(S(=O)(=O)C3CC3)CC2)nc(-c2ccc(NC(=S)NCCO)cc2)n1 | 78.2 | 4.35 | 91.9 | > 100 | < 10 | 0.0437 µM | 32.7 | 26.2 | 20 | > 100 | 40.5 | > 100 µM | 51.1 nM | 3.06 | < 12.5 | 1.86 | 63.4 | > 100 | 27.2 | 0.524
